From patent US10794932B2, “Biosensor for the detection of a biological target, and method for manufacturing the same” (The Governing Council of The University of Toronto, priority 2016, dated 2020)

Target: T1, TLR3 (Mus musculus, UniProt Q99MB1)
T1 sequence (Q99MB1 26-905): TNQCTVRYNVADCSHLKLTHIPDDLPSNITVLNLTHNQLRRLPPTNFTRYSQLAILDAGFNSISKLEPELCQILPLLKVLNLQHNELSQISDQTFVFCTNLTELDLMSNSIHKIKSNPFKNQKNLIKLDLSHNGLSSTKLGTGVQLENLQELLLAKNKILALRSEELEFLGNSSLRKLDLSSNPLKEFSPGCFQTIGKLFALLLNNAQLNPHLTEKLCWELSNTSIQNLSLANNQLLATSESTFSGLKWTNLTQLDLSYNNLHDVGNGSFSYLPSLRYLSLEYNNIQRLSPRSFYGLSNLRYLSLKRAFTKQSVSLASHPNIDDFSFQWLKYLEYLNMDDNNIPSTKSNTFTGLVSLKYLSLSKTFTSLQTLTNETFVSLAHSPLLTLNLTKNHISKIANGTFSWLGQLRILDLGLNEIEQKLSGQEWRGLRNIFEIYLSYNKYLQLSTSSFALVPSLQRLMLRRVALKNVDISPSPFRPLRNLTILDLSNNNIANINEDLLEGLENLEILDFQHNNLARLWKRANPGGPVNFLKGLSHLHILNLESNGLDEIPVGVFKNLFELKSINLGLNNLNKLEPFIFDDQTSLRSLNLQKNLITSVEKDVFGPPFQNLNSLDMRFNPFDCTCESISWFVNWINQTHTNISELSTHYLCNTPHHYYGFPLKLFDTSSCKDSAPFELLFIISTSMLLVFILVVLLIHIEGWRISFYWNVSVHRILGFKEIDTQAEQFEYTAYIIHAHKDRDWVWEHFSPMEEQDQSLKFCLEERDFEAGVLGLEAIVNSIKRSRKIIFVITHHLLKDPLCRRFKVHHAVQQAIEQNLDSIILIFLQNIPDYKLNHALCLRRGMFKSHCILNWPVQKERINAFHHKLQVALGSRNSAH
Assay: TLR multiplex sensor, EIS film resistance before/after exposure (Example 5), TLR3 sensor
Assay type: binding
Conditions: exposure 20 minutes
Experimental: For each multiplex TLR sensor, 5 separate gold electrodes were used for binding TLR 1 to 5. The 5 modified electrodes/sensors were exposed to the analyte solution and evaluated one by one using potentiostats and electrochemical cells.
The preparation of each TLR biosensor was evaluated using EIS. It is understood that cyclic voltammetry as well as electrochemical impedance microscopy can also be used for monitoring the modification. […] Ethanolamine was then applied to deactivate unreacted LPA. Due to dissociation of unspecific absorbed TLR, the Rct dropped slightly. Experimental curves were evaluated using a model to obtain the Rct values, which can be seen at FIG. 9. Measurements from at least triplicated samples prepared were used to obtain statistic information.
The TLR1 sensor was exposed to an E. coli K12 whole-cell buffer solution for 20 minutes. The sensor was then removed, washed thoroughly and characterized in the electrochemical cell measuring the Rct again. The difference in Rct before and after exposure is the response triggered by the target. The same protocol was carried out for all remaining TLRs (TLRs 2-5) to obtain one set of pattern for E. coli K12 (FIGS. 10b to 10e). Multiple sets were investigated for statistical relevance. […]

Pam3CSK4
delta Rct %: limited responses
